No end group written: not given here.
Experiments:
[1] = tested on: Wild-type C57BL/6 mice challenged with BLM; assay: Acute BLM model in vivo (single intratracheal 0.075 U BLM), therapeutic regimen with Series 2 peptides; design: species or system mouse; details: for pulmonary levels of IL-33 (ELISA, lung homogenates) / total lung collagen (QuickZyme assay): 10 nmol/g intraperitoneal daily on days 5-13, day 14; for signs of toxicity (ruffled fur, hunched posture, reduced mobility, diarrhea, weight lost, tachypnea) / therapeutic effect against fibrosis: acute BLM injury model; for signs of toxicity (ruffled fur, hunched posture, reduced mobility, diarrhea, weight lost, tachypnea): in vivo; for therapeutic effect against fibrosis: therapeutic mode
From the text: FIG. 2. Design of decoy peptides in Series 2 (A), the effects of peptides 2-5 and 2-10 on pulmonary levels of IL-33 (B, D), and collagen (C, D) proteins in the acute BLM model in vivo. In panels B and D, mean ±SD values are shown. […] Wild-type C57BL/6 mice were challenged with a single intratracheal instillation of 0.075 U of BLM or PBS vehicle, and the disease was allowed to evolve for 5 days. On days 5-13, mice received daily intraperitoneal injections of 10 nmol/g of peptides 2-5 or 2-10, or PBS vehicle. Mice were euthanized on day 14, and IL-33 levels measured by ELISA in lung homogenates, whereas total lung collagen was measured using QuickZyme assays.
(§1) We propose development of a new IL-33 attenuating therapy based on CPP-DP-based strategy. […] In each peptide 1-1 and 1-2, the CPP penetratin was N-terminally fused to the DP. The final sequences of peptides 1-1 and 1-2 were […] (SEQ ID NO:69) and ROIKIWFONRRMKWKKFRRETTKRPSLKTG (SEQ ID NO:70), respectively, with the CPP portion shown in italic and the DP portions underlined. Primary fibroblasts were electroporated with FLIL33-encoding and, separately, control non-coding vehicle (NULL) plasmids, and, after 24 h, the medium was replaced with added peptides 1-1 or 1-2. Based on our experience with CPP-DPs, initial concentrations of 20 μM and 40 μM were tested. After an additional 24 h, cells were lysed and the lysates were analyzed for the levels of IL-33 by ELISA. […] The most likely explanation for this effect is based on our previous experience of depleting IPOS with CRISPR-Cas9, AdV-shRNA, and siRNA technologies (Clerman et al., J Biol Chem. (2017). 292:21653-61: Kopach et al., J Biol Chem. (2014). 289:11829-43). We previously observed that a complete or nearly complete depletion of IPO5 using these methodologies quickly leads to cell death, whereas substantial yet incomplete depletion of IPO5 levels abrogates FLIL33 without affecting cell viability. We argue that peptide 1-1 is “too effective” in binding IPO5, thus competing for it not only with FLIL33 but also with other critical molecular partners, and ultimately impeding on cell survival. We then undertook a more rigorous, unbiased approach, based on the following considerations. As stated above in relation to Example 1, there are possible multiple other regions in the N-terminal portion of FLIL33 that control its stability, subcellular localization, secretion, maturation, and functional binding of intracellular molecular partners. Targeting by DPs needs to cover the entire N-terminal part of FLIL33 and be performed in a systematic fashion, and the data integrated with the observations in Examples 1 and 2. […] We began by designing Series 2 of overlapping DPs that together cover the entire N-terminus of FLIL33. In all cases, a different CPP (TAT) is fused on the N terminus, based on the possibility that it may decrease the peptide load per cell and thus limit toxicity. […] We then proceeded to test the capacity of this peptide to deplete the levels of IL-33 in vivo and to determine whether such depletion may be protective, in the therapeutic mode, against fibrosis in the acute BLM injury model. […] Thus, peptide 2-5 fused with TAT may be a promising therapeutic agent. However, this and other peptides in this series need to be considered in detail.

[2] = tested on: mice chronically challenged with BLM; assay: Chronic BLM challenge model (BLM intraperitoneally twice a week for 33 days), treatment with CPP-DPs; assay type: in vivo, mouse; details: for total body weight over time: intraperitoneal three times a week, started after 14 days of challenge
From the text: FIG. 6. Therapeutic effects of CPP-DPs in the chronic BLM challenge model. A. Time course schematic of the chronic BLM challenge model. B. Time-dependent changes in total body weight (mean percent of initial body weight ±SD. Asterisks indicate higher (p<0.05) body weights in CPP-DP-treated compared to PBS control-treated mice. C. Individual collagen levels, μg per mg of wet lung tissue (left), and IL-33 levels, pg per mg of wet lung tissue (right), in lung homogenates from mice treated as indicated. Asterisks indicate lower (p<0.05) levels in BLM-challenged, PBS-treated control mice.
We then considered that such acute model of bleomycin injury, despite its universal use in this field of work, is well known to represent the chronic nature of human pulmonary fibrosis less accurately than the chronic model of systemic BLM delivery. In the chronic model, BLM is injected intraperitoneally twice a week for 33 days, with subsequent assessment of pulmonary changes (FIG. 6A). We challenged mice in this fashion, and, after 14 days such chronic challenge at which point the decline in their total body weight became obvious (FIG. 6B), initiated treatment with CPP-DP5, CPP-DP10, or PBS injected intraperitoneally three times a week (FIG. 6A). […] Of note, such therapy with CPP-DP5 was efficacious despite the continued challenge with repeated administration of BLM (FIG. 6A).

[3] = tested on: mice challenged intratracheally with a single dose bleomycin (BLM); assay: Acute BLM challenge model (intratracheal 0.08 U BLM), therapeutic regimen with CPP-DPs; assay type: in vivo, mouse; details: for collagen accumulation in lung / pulmonary IL-33 accumulation: end of 3 weeks, vs PBS-treated animals; for total body weight over time: intraperitoneal once a day from day 8 for 2 weeks, vs BLM-challenged, PBS-treated mice
From the text: FIG. 5. Therapeutic effects of CPP-DPs in the acute BLM challenge model. A. Time course schematic of the acute BLM challenge model. […] Data in panels B and C were pooled data from separate 3 experiments.
To test the ability of these peptides to deplete the levels of IL-33 in vivo and to assess their ability to modulate the degree of pulmonary fibrosis, these peptides were synthesized, HPLC-purified, and tested in the therapeutic regimen in mice challenged intratracheally with a single dose bleomycin (BLM). In this acute BLM challenge mode, mice received intratracheal 0.08 U of BLM or an equal volume phosphate-buffered saline (PBS) control and allowed to respond to such injury for a week without any intervention. On day 8, intraperitoneal administrations of CPP-DPs once a day were started and continued for 2 weeks. In the end of the 3 weeks, mice have been euthanized, lungs extracted, and pulmonary levels of IL-33 and collagen measured.

IL-33 = assay: Initial cell culture screening tests of Series 2 peptides for depletion of IL-33; assay type: cell-based; details: TAT-fused Series 2 peptide, most pronounced of the series
From the text: We propose development of a new IL-33 attenuating therapy based on CPP-DP-based strategy. […] In each peptide 1-1 and 1-2, the CPP penetratin was N-terminally fused to the DP. The final sequences of peptides 1-1 and 1-2 were […] (SEQ ID NO:69) and ROIKIWFONRRMKWKKFRRETTKRPSLKTG (SEQ ID NO:70), respectively, with the CPP portion shown in italic and the DP portions underlined. Primary fibroblasts were electroporated with FLIL33-encoding and, separately, control non-coding vehicle (NULL) plasmids, and, after 24 h, the medium was replaced with added peptides 1-1 or 1-2. Based on our experience with CPP-DPs, initial concentrations of 20 μM and 40 μM were tested. After an additional 24 h, cells were lysed and the lysates were analyzed for the levels of IL-33 by ELISA. […] The most likely explanation for this effect is based on our previous experience of depleting IPOS with CRISPR-Cas9, AdV-shRNA, and siRNA technologies (Clerman et al., J Biol Chem. (2017). 292:21653-61: Kopach et al., J Biol Chem. (2014). 289:11829-43). […]
Studies in human and mouse cell cultures. […] CPP-DPs and control CPPs will be added to cell culture, and the levels of the overexpressed proteins assessed in cell lysates by ELISA as well as by WB for the HA-tag, which is attached to the C-terminus of all of these proteins.

Primary fibroblasts = assay: Cell viability / toxicity of peptides in FLIL33-overexpressing or NULL-transfected primary fibroblasts; assay type: cell-based; details: for effect on cell viability (toxicity to cells): initial concentrations of 20 μM and 40 μM, FLIL33-overexpressing or NULL-transfected fibroblasts, 24 h
From the text: as §1

[4] = vs CPP-DP10-treated and PBS-treated controls

Substance	pulmonary levels of IL-33 (ELISA, lung homogenates) [1]	total lung collagen (QuickZyme assay) [1]	signs of toxicity (ruffled fur, hunched posture, reduced mobility, diarrhea, weight lost, tachypnea) [1]	therapeutic effect against fibrosis [1]	total body weight over time [2]	collagen accumulation in lung [3]	total body weight over time [3]	collagen accumulation in lung [2, 4]	pulmonary IL-33 accumulation [2, 4]	depletion of IL-33 (IL-33)	pulmonary IL-33 accumulation [3]	effect on cell viability (toxicity to cells) (Primary fibroblasts)	concentrations at which the peptide remains toxic (as low as) (Primary fibroblasts; serial dilutions) [nM]	toxicity at concentrations lower than 2.5 μM (Primary fibroblasts; serial dilutions, lower concentrations)
GRKHKRHLVLAACQQQ [peptide 2-10]	not	not	Neither of these two peptides caused any signs of toxicity	did not	not	not	closely followed the same trend	–	–	–	–	–	–	–
QQKAKEVCPMYFMKLR [peptide 2-5]	attenuated the levels of IL-33	arrested deposition of collagen	Neither of these two peptides caused any signs of toxicity	encouraging therapeutic effect	regained their body weight in a time-dependent fashion	significantly less collagen	quickly recovered their body weight	significantly less collagen	significantly less	exceeding 60 % of the original levels	significantly less	–	–	–
RQIKIWFQNRRMKWKKFMKLRSGLMIKKEA-NH2 [peptide 1-1]	–	–	–	–	–	–	–	–	–	–	–	highly toxic to cells	≥ 2500	becomes non-toxic
RQIKIWFQNRRMKWKKFRRETTKRPSLKTG-NH2 [peptide 1-2, ROIKIWFONRRMKWKKFRRETTKRPSLKTG]	–	–	–	–	–	–	–	–	–	–	–	no effect on cell viability	–	–
SGLMIKKEACYFRRET [2-7]	–	–	–	–	–	significantly less collagen	quickly recovered their body weight	–	–	–	significantly less	–	–	–

— US20250188141A1, “DECOY PEPTIDES FOR TREATING DISEASES OR CONDITIONS MODULATED BY INTERLEUKIN-33” (University of Maryland, Baltimore, priority 2022, published 2025)
